The test system of one experiment is HL-60. As to the kind of experiment: Cell death IC50 by PI staining/FACS. Conditions: Human acute promyelocytic leukemia/EBV(−), 0.1–15 µM, 6 h (suspension) or 12 h (adherent cells), mean ± SEM, read-out: Peptide IC50 (µM), cell death, HL-60. It counts as cell-based. On the procedure:
(§1) Measurement of apoptosis and cell death. Apoptosis was evaluated by TUNEL assay using the In Situ Cell Death Detection Kit™ (Roche). Cells were fixed in 4% paraformaldehyde and labeled with TUNEL reagents. Stained cells were photographed by a fluorescence microscope (11). For cell death analysis, the propidium iodide (PI) staining was performed by addition of 6.25 µg/ml of PI to the cells, and cell death was immediately evaluated by FACS analysis (3).

A further experiment concerns Healthy MNCs. As to the kind of experiment: Cell death IC50 by PI staining/FACS. It counts as cell-based. Conditions: Healthy human mononuclear cells/EBV(−), 0.1–15 µM, 6 h (suspension) or 12 h (adherent cells), mean ± SEM, read-out: Peptide IC50 (µM), cell death, Healthy MNCs. Here is the method: as §1
For a further experiment, the system named is HepG2. As to the kind of experiment: Cell death IC50 by PI staining/FACS. The format is cell-based. Conditions: Human hepatocellular carcinoma/EBV(−), 0.1–15 µM, 6 h (suspension) or 12 h (adherent cells), mean ± SEM, read-out: Peptide IC50 (µM), cell death, HepG2. On the procedure:
as §1

For a further experiment, the system named is MDA-MB-231. The experiment is described as follows: Cell death IC50 by PI staining/FACS. The format is cell-based. The following applies: Human breast adenocarcinoma/EBV(−), 0.1–15 µM, 6 h (suspension) or 12 h (adherent cells), mean ± SEM, read-out: Peptide IC50 (µM), cell death, MDA-MB-231. On the procedure: as §1
A further experiment concerns MM.1R. The experiment is described as follows: Cell death IC50 by PI staining/FACS. The format is cell-based. Conditions: Human B lymphoblast/EBV(−), 0.1–15 µM, 6 h (suspension) or 12 h (adherent cells), mean ± SEM, read-out: Peptide IC50 (µM), cell death, MM.1R. On the procedure:
as §1

A further experiment deals with RPMI 8226. As to the kind of experiment: Cell death IC50 by PI staining/FACS. It counts as cell-based. Conditions: Human B lymphoblast/EBV(−), 0.1–15 µM, 6 h (suspension) or 12 h (adherent cells), mean ± SEM, read-out: Peptide IC50 (µM), cell death, RPMI 8226. Here is the method:
as §1

The test system of another experiment is SW480. As to the kind of experiment: Cell death IC50 by PI staining/FACS. Conditions: Human colorectal adenocarcinoma/EBV(−), 0.1–15 µM, 6 h (suspension) or 12 h (adherent cells), mean ± SEM, read-out: Peptide IC50 (µM), cell death, SW480. The format is cell-based. Here is the method: as §1
The subject of a further experiment is U266B1. As to the kind of experiment: Cell death IC50 by PI staining/FACS. Conditions: Human B lymphoblast/EBV(−), 0.1–15 µM, 6 h (suspension) or 12 h (adherent cells), mean ± SEM, read-out: Peptide IC50 (µM), cell death, U266B1. It counts as cell-based. On the procedure:
as §1

Experiment [1] deals with SNK6 cells. As to the kind of experiment: 8-OHdG formation (DNA damage ELISA). It counts as cell-based, human. The following applies: 0.5 µM peptide, 6 h, vs CTL, n = 5 (Fig. 3c). Here is the method: (§2) Measurement of DNA breaks. 8-OHdG formation was measured using an OxiSelect™ Oxidative DNA Damage ELISA Kit (Cat No. STA320, from Cell Biolabs Inc.) per manufacturers’ instructions. The formation of γH2AX was measured from nuclear extracts by western blotting using H2AX as the input control (8).
Background: ELISA stands for enzyme-linked immunosorbent assay.

Experiment [2] concerns SNK6 cells. The experiment is described as follows: γH2AX formation (western blot). It counts as cell-based, human. The following applies: 0.5 µM peptide, 6 h, vs CTL, n = 5 (Fig. 3d). On the procedure: as §2
In general terms: A western blot detects proteins with antibodies after separation by electrophoresis.

Another experiment deals with BMRF1. As to the kind of experiment: mRNA level by qPCR in SNK6 cells. The format is cell-based, EBV. The following applies: 0.5 µM peptide, 6 h, vs CTL, n = 4 (Fig. 3f). On the procedure:
(§3) Fig. 3 Peptide for the last eight aa of HKDC1 at the C-terminal (Tf-D-HKC8) inhibits EBV replication and P-gp expression through ROS generation and DNA damage in ENKTL cells. SNK6 cells were treated with control (CTL), Tf-D-HKN15, Tf-D-HKC15, or Tf-D-HKC8 peptide (0.5 µM) for 6 h and the cells were used for biomedical analysis. a ROS formation, n = 5. b 3-nitrotyrosine (3-NT) formation, n = 5. c 8-OHdG formation, n = 5. d Quantitation of γH2AX formation, n = 5. e Representative western blotting bands for d. f mRNA level by qPCR for BZLF1, BMRF1, and ABCB1, n = 4. g Protein quantitation for Zta, EA-D, and P-gp, n = 5. h Representative pictures of western blots for g. i EBV viral genomes/cell by qPCR, n = 4. *P < 0.05, vs CTL group; ^¶P < 0.05, vs Tf-D-HKC15 group. Results were expressed as mean ± SEM.

For the next experiment, the system named is BZLF1. As to the kind of experiment: mRNA level by qPCR in SNK6 cells. Conditions: 0.5 µM peptide, 6 h, vs CTL, n = 4 (Fig. 3f). It counts as cell-based, EBV. On the procedure: as §3
For orientation: Real-time PCR tracks product formation cycle by cycle.

The subject of experiment [3] is SNK6 cells. As to the kind of experiment: Cell migration assay. The format is cell-based, human. The following applies: 0.5 µM peptide, 6 h, vs CTL, n = 5 (Fig. 5b). Here is the method:
(§4) Migration and invasion assays. Cell migration and invasion assays were performed in 24-well chemotaxis plates with an 8μm polycarbonate filter membrane. The plates were coated with 20μg Matrigel for invasion assays and uncoated for migration assays. Invasion and migration were expressed as the number of migrated cells bound per microscopic field and averaged from at least four fields per assay in at least 4 experiments (18, 19).

Experiment [4] relates to SNK6 cells. The experiment is described as follows: Cell invasion assay. It counts as cell-based, human. Conditions: 0.5 µM peptide, 6 h, Matrigel, vs CTL, n = 5 (Fig. 5c). On the procedure:
as §4

The next experiment has as its system EBV EA-D. As to the kind of experiment: Protein level in xenograft tumor tissue (western blot). Conditions: SNK6 xenograft, nude mice; intratumoral 50 µM peptide every 2 days from day ~18; tissue day 50; western blot vs CTL; n = 5. It counts as in vivo, mouse. The text has this:
(§5) Biomedical analysis of tumor tissues.

The next experiment has as its system P-gp. Described as above. The following applies: SNK6 xenograft, nude mice; intratumoral 50 µM peptide every 2 days from day ~18; tissue day 50; western blot vs CTL; n = 5. It counts as in vivo, mouse.
Source text: as §5

Experiment [5] has as its system SNK6 xenograft. As to the kind of experiment: SNK6 xenograft tumor volume. The format is in vivo, mouse. Conditions: nude mice, n = 5; for tumor volumes on day 36: intratumoral 50 µM peptide every 2 days from day ~18, day 36, vs CTL; for tumor volumes on day 48: intratumoral 50 µM peptide every 2 days from day ~18, day 48, vs CTL.
Description: To measure malignant SNK6 xenograft growth, 100 µl of 1 × 10^5 SNK6 cells in PBS were mixed with 100 µl growth factor-reduced basement membrane matrix (Matrigel™, BD Biosciences) resulting in 200 µl of solution that was injected subcutaneously along the mouse flank at each intended tumor site. Tumor size was measured using a digital caliper and volume was calculated, and mice were randomly divided into four groups (n = 9 per group) when the tumor volume reached 50–100 mm^3 on day ~18 after tumor inoculation and given treatment as follows: Group 1 (control (CTL)) was intratumorally injected with HBSS buffer (5.33 mM KCl, 0.44 mM KH2PO4, 138 mM NaCl, 4 mM NaHCO3, 0.3 mM Na2HPO4, and 5.6 mM glucose, pH 7.3) containing 0.05% DMSO; Group 2 (Tf-D-HKN15) received HBSS buffer containing 0.05% DMSO with 50 µM Tf-D-HKN15 peptides; Group 3 (Tf-D-HKC15) received HBSS buffer containing 0.05% DMSO with 50 µM Tf-D-HKC15 peptides; Group 4 (Tf-D-HKC8) received HBSS buffer containing 0.05% DMSO with 50 µM Tf-D-HKC8 peptides. The xenografts were injected (two points, 20 µl per tumor) every 2 days. Beginning on the day of inoculation, mouse weight and tumor volume were monitored every 2 days. Mice were monitored for changes in body weight and sacrificed when values fell below 20% of their initial weight; the survival curve was calculated and the final tumor tissues were isolated for biomedical analysis.
To measure the malignant SNK6 xenograft growth, the 100µl of 1x10^5 SNK6 cells in PBS were mixed with 100µl growth factor-reduced basement membrane matrix (Matrigel™, BD Biosciences) resulting in 200µl of solution that was injected subcutaneously along the mouse flank at each intended tumor site. Tumor size was measured using a digital caliper and volume was calculated, and mice were randomly divided into 4 groups (n=9 per group) when the tumor volume reached 50-100 mm^3 on day ~18 after tumor inoculation: Group 1 (CTL) was intratumorally injected with HBSS buffer (5.33 mM KCl, 0.44 mM KH2PO4, 138 mM NaCl, 4 mM NaHCO3, 0.3 mM Na2HPO4, and 5.6 mM glucose, pH 7.3) containing 0.05% DMSO; Group 2 (Tf-D-HKN15) received HBSS buffer containing 0.05% DMSO with 50 µM Tf-D-HKN15 peptides; Group 3 (Tf-D-HKC15) received HBSS buffer containing 0.05% DMSO with 50 µM Tf-D-HKC15 peptides; Group 4 (Tf-D-HKC8) received HBSS buffer containing 0.05% DMSO with 50 µM Tf-D-HKC8 peptides. The xenografts were injected (two points, 20 µL per tumor) every two days. Beginning on the day of inoculation, mouse weight and tumor volume were monitored every 2 days. Mice were monitored for changes in body weight and sacrificed when values fell below 20% of their initial weight, the survival curve was calculated and the final tumor tissues were isolated for biomedical analysis.
In experiment [6] the test system is SNK6 xenograft. The experiment is described as follows: Mouse survival, Kaplan–Meier analysis. It counts as in vivo. The following applies: nude mice, intratumoral 50 µM peptide every 2 days from day ~18, compared with CTL group, n = 9. Here is the method: Statistical analysis. The data was given as mean ± SEM; all of the experiments were performed at least in quadruplicate unless otherwise indicated. One-way ANOVA followed by the Bonferroni post hoc test was used to determine statistical significance of different groups. The mouse survival curve was determined through Kaplan-Meier survival analysis using SPSS 22 software, and a P value < 0.05 was considered significant (8).

Broadly, the IC50 is the midpoint of a concentration-inhibition curve.

Regarding HAIYPRH-ITAVAKRLQQAQKEN [Tf-D-HKC15], the IC50 in the experiment on HL-60 was 2.2 ± 0.6 µM; with Healthy MNCs, more than 15 µM; in the experiment with HepG2, more than 15 µM; in the experiment on MDA-MB-231, 14.4 ± 0.8 µM; with MM.1R it was 2.3 ± 0.7 µM; with RPMI 8226, 1.9 ± 0.7 µM. Further, the IC50 in the experiment with SW480 was found to be 8.9 ± 0.9 µM; with U266B1, 2.2 ± 0.6 µM. This substance gave an 8-OHdG formation in the experiment on SNK6 cells [1] of 157%. In addition, the γH2AX formation with SNK6 cells [2] worked out at 144%. The “BMRF1 mRNA” value in the experiment on BMRF1 came to 65%. Further, in the experiment with BZLF1, the “BZLF1 mRNA” value amounted to 47%. Moreover, in the experiment on SNK6 cells [3], the cell migration is reported as 66%. In the experiment on SNK6 cells [4], the cell invasion was determined as 61%. In the experiment with EBV EA-D, the “EBV EA-D protein in tumor” value amounted to 61%. In the experiment with P-gp, the “P-gp protein in tumor” value was found to be 48%. The “tumor volumes on day 36” value in the experiment on SNK6 xenograft [5] worked out at 63%. Besides, the “tumor volumes on day 48” value in the experiment on SNK6 xenograft [5] is 70%. The same substance displayed a mouse survival with SNK6 xenograft [6] of 197%.

As for HAIYPRH-LQQAQKEN [Tf-D-HKC8], the IC50 in the experiment on HL-60 was 1.7 ± 0.4 µM; with Healthy MNCs, more than 15 µM; in the experiment with HepG2, more than 15 µM; in the experiment on MDA-MB-231 it was 11.6 ± 1.1 µM; with MM.1R, 1.6 ± 0.4 µM; in the experiment on RPMI 8226, 1.3 ± 0.6 µM. For the same substance, the half-inhibitory concentration (IC50) with SW480 came out at 6.7 ± 0.8 µM; with U266B1 it was 1.4 ± 0.3 µM. The substance also showed an 8-OHdG formation in the experiment with SNK6 cells [1] of 209%. In the experiment with SNK6 cells [2], this substance displayed a γH2AX formation of 189%. For the same substance, in the experiment on BMRF1, the “BMRF1 mRNA” value was 31%. Moreover, in the experiment with BZLF1, the “BZLF1 mRNA” value worked out at 21%. In the experiment on SNK6 cells [3], this substance gave a cell migration of 23%. In the experiment with SNK6 cells [4], this substance showed a cell invasion of 29%. For the same substance, the “EBV EA-D protein in tumor” value with EBV EA-D is on record as 38%. Also, in the experiment with P-gp, the “P-gp protein in tumor” value was found to be 17%. In addition, the “tumor volumes on day 36” value in the experiment on SNK6 xenograft [5] amounted to 36%. Besides, in the experiment with SNK6 xenograft [5], the “tumor volumes on day 48” value stood at 32%. The same substance had a mouse survival in the experiment on SNK6 xenograft [6] of 335%.
